From ChEMBL document CHEMBL1138025, “Nocathiacin I analogues: synthesis, in vitro and in vivo biological activity of novel semi-synthetic thiazolyl peptide antibiotics” (Bioorg Med Chem Lett, 2004)
≈ marks a conversion by molar mass, not a printed value.

Key:
[1] = molecular target: Neuronal acetylcholine receptor; alpha4/beta2 (Rattus norvegicus, UniProt P09483+P12390); assay: Inhibition of [3H]- cytisine binding to Nicotinic acetylcholine receptor alpha4-beta2 of rat cortical membranes; type: cell membranes, Membrane
Neuronal acetylcholine receptor; alpha4/beta2, sequence (P09483 whole entry): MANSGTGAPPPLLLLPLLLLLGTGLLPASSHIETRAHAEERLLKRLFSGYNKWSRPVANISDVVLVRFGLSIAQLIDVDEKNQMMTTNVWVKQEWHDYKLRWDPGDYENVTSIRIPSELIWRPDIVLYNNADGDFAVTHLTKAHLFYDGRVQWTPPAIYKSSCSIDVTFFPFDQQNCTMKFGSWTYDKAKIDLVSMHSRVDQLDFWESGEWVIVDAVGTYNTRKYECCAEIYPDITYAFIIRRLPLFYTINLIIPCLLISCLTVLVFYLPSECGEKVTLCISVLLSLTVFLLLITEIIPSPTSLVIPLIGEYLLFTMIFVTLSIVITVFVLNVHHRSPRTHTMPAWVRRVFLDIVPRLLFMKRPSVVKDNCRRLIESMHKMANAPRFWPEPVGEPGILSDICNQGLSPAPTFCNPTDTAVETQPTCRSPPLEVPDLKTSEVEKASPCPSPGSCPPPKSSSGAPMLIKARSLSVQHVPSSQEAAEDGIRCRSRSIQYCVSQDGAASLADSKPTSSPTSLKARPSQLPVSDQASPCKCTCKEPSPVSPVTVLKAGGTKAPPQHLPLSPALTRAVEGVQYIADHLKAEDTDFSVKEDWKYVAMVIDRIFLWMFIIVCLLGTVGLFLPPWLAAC
Neuronal acetylcholine receptor; alpha4/beta2, sequence (P12390 whole entry): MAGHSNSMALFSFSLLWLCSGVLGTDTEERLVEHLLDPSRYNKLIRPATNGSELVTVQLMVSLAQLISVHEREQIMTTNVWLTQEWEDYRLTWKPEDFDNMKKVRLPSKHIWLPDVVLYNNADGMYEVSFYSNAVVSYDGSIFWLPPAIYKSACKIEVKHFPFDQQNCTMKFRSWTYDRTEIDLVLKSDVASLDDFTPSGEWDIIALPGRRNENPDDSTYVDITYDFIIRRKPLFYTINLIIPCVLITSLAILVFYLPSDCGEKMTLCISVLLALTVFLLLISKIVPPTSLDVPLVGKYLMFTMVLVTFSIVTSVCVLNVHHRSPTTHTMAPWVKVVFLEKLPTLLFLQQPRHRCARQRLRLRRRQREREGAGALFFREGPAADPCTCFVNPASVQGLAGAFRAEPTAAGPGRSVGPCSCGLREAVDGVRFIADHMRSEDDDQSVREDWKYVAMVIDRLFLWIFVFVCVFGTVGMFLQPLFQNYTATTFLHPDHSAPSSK

[2] = species: Mus musculus; assay: Effective concentration showing antinociception activity was determined by tail flick test in mouse; type: functional, organism-based
[3] = test system: Staphylococcus aureus; assay: In vitro antibacterial activity against methicillin-sensitive Staphylococcus aureus A15090; type: functional
[4] = test system: Enterococcus faecalis; assay: In vitro antibacterial activity against methicillin-sensitive Enterococcus faecalis A20688; type: functional
[5] = test system: Streptococcus pneumoniae; assay: In vitro antibacterial activity against penicillin-resistant Streptococcus pneumoniae A28272; type: functional
[6] = test system: Mus musculus; assay: In vivo efficacy (PD50) against lethal Staphylococcus aureus systemic infection model in mice; type: functional; settings: read-out: PD50
[7] = Equilibrium water solubility at pH 2.7; type: physicochemical
[8] = Equilibrium water solubility at pH 3.9; type: physicochemical
[9] = Equilibrium water solubility at pH 2.8; type: physicochemical
[10] = Equilibrium water solubility at pH 3.5; type: physicochemical
[11] = Equilibrium water solubility at pH 3.8; type: physicochemical
[12] = Equilibrium water solubility at pH 2.6; type: physicochemical
[13] = Equilibrium water solubility at pH 4.0; type: physicochemical

Row | Compound | MIC [3] [µg/mL] | MIC [4] [µg/mL] | MIC [5] [µg/mL] | ED50 [6] [mg/kg] | further results
1 | Clc1ccc(C2CC3CCC2CN3)cn1 (stereo unspecified) |  |  |  |  | Ki [1]: 340 pM; EC50 [2]: 1.4 mg/kg
2 | CO/C(C)=C1/NC(=O)[C@H]([C@@H](C)O)NC(=O)c2csc(n2)-c2cc(O)c(-c3nc(C(=O)NC(CN4CCN(C(C)=O)CC4)C(N)=O)cs3)nc2-c2csc(n2)[C@@H]2COC(=O)c3c4c5c(cccc5n3O)COC(=O)[C@@H](O[C@H]3C[C@](C)(O)[C@H](N(C)C)[C@H](C)O3)[C@@H](OC4)[C@H](NC(=O)c3csc1n3)c1nc(cs1)C(=O)N2 (stereo partly specified) | 0.5 (≈ 0.319 µM) | 2 (≈ 1.28 µM) | 0.03 (≈ 0.0192 µM) | 5 | solubility thermodynamic [7]: > 2400 µg/mL
3 | CO/C(C)=C1/NC(=O)[C@H]([C@@H](C)O)NC(=O)c2csc(n2)-c2cc(O)c(-c3nc(C(=O)NC(CN(C)CCCn4ccnc4)C(N)=O)cs3)nc2-c2csc(n2)[C@@H]2COC(=O)c3c4c5c(cccc5n3O)COC(=O)[C@@H](O[C@H]3C[C@](C)(O)[C@H](N(C)C)[C@H](C)O3)[C@@H](OC4)[C@H](NC(=O)c3csc1n3)c1nc(cs1)C(=O)N2 (stereo partly specified) | 0.12 (≈ 0.0761 µM) | 0.12 (≈ 0.0761 µM) | 0.01 (≈ 0.00634 µM) | 5 | solubility thermodynamic [8]: > 10600 µg/mL
4 | CO/C(C)=C1/NC(=O)[C@H]([C@@H](C)O)NC(=O)c2csc(n2)-c2cc(O)c(-c3nc(C(=O)NC(CN(C)CCC(=O)Nc4ccncc4)C(N)=O)cs3)nc2-c2csc(n2)[C@@H]2COC(=O)c3c4c5c(cccc5n3O)COC(=O)[C@@H](O[C@H]3C[C@](C)(O)[C@H](N(C)C)[C@H](C)O3)[C@@H](OC4)[C@H](NC(=O)c3csc1n3)c1nc(cs1)C(=O)N2 (stereo partly specified) | 0.5 (≈ 0.309 µM) | 0.5 (≈ 0.309 µM) | 0.03 (≈ 0.0186 µM) | 8.7 | solubility thermodynamic [9]: > 3000 µg/mL
5 | COCCOCCOCCOCCN1CCN(CC(NC(=O)c2csc(-c3nc4c(cc3O)-c3nc(cs3)C(=O)N[C@@H]([C@@H](C)O)C(=O)N/C(=C(\C)OC)c3nc(cs3)C(=O)N[C@@H]3c5nc(cs5)C(=O)N[C@@H](COC(=O)c5c6c7c(cccc7n5O)COC(=O)[C@@H](O[C@H]5C[C@](C)(O)[C@H](N(C)C)[C@H](C)O5)[C@H]3OC6)c3nc-4cs3)n2)C(N)=O)CC1 (stereo partly specified) | 0.5 (≈ 0.292 µM) | 4 (≈ 2.33 µM) | 0.25 (≈ 0.146 µM) | 1.5 | solubility thermodynamic [10]: > 1500 µg/mL
6 | CO/C(C)=C1/NC(=O)[C@H]([C@@H](C)O)NC(=O)c2csc(n2)-c2cc(O)c(-c3nc(C(=O)NC(CN4CCC(O)CC4)C(N)=O)cs3)nc2-c2csc(n2)[C@@H]2COC(=O)c3c4c5c(cccc5n3O)COC(=O)[C@@H](O[C@H]3C[C@](C)(O)[C@H](N(C)C)[C@H](C)O3)[C@@H](OC4)[C@H](NC(=O)c3csc1n3)c1nc(cs1)C(=O)N2 (stereo partly specified) | 0.06 (≈ 0.039 µM) | 0.25 (≈ 0.162 µM) | 0.007 (≈ 0.00455 µM) | 2.1 | solubility thermodynamic [11]: > 2700 µg/mL
7 | CNCCNCC(NC(=O)c1csc(-c2nc3c(cc2O)-c2nc(cs2)C(=O)N[C@@H]([C@@H](C)O)C(=O)N/C(=C(\C)OC)c2nc(cs2)C(=O)N[C@@H]2c4nc(cs4)C(=O)N[C@@H](COC(=O)c4c5c6c(cccc6n4O)COC(=O)[C@@H](O[C@H]4C[C@](C)(O)[C@H](N(C)C)[C@H](C)O4)[C@H]2OC5)c2nc-3cs2)n1)C(N)=O (stereo partly specified) | 0.25 (≈ 0.165 µM) | 0.5 (≈ 0.331 µM) | 0.03 (≈ 0.0198 µM) |  | solubility thermodynamic [12]: > 2500 µg/mL
8 | C=C(NC(=O)c1csc(-c2nc3c(cc2O)-c2nc(cs2)C(=O)N[C@@H]([C@@H](C)O)C(=O)N/C(=C(\C)OC)c2nc(cs2)C(=O)N[C@@H]2c4nc(cs4)C(=O)N[C@@H](COC(=O)c4c5c6c(cccc6n4O)COC(=O)C(O[C@H]4C[C@](C)(O)[C@H](N(C)C)[C@H](C)O4)[C@H]2OC5)c2nc-3cs2)n1)C(N)=O (stereo partly specified) | 0.007 (≈ 0.00487 µM) | 0.03 (≈ 0.0209 µM) | 0.001 (≈ 0.000696 µM) | 0.8 | solubility thermodynamic [13]: 340 µg/mL (≈ 237 µM)
